Positions of bridges follow the written chain, without caps; N, C: chain ends. Residues, ends and D or L forms follow the SMILES beside them.
species: Oryctolagus cuniculus; assay: Effective concentration required for stimulation of vascular contraction tested in vitro using carotid arteries of New Zealand white rabbits; format: functional

Structure (SMILES) | EC50
CC[C@H](C)[C@H](NC(=O)[C@H](CC(=O)O)NC(=O)[C@H](CC(C)C)NC(=O)[C@H](Cc1c[nH]cn1)NC(=O)[C@@H]1CSSC[C@H](N)C(=O)N[C@@H](C)C(=O)N[C@H]2CSSC[C@H](NC(=O)[C@H](CCC(=O)O)NC(=O)[C@H](CCCCN)NC(=O)[C@H](CC(=O)O)NC(=O)[C@H](CCSC)NC(=O)[C@H](CC(C)C)NC(=O)[C@H](CO)NC(=O)[C@H](CO)NC2=O)C(=O)N[C@@H](C(C)C)C(=O)N[C@@H](Cc2ccc(O)cc2)C(=O)N[C@@H](Cc2ccccc2)C(=O)N1)C(=O)N[C@H](C(=O)N[C@@H](Cc1c[nH]c2ccccc12)C(=O)O)[C@@H](C)CC (H-CACSSLMDKECVYFCHLDIIW-OH; disulfide 1-15, 3-11) | 0.038 µM
CC[C@H](C)[C@H](NC(=O)[C@H](CC(=O)O)NC(=O)[C@H](CC(C)C)NC(=O)[C@H](Cc1c[nH]cn1)NC(=O)[C@@H]1CSSC[C@H](N)C(=O)N[C@@H](CO)C(=O)N[C@H]2CSSC[C@H](NC(=O)[C@H](CCC(=O)O)NC(=O)[C@H](CCCCN)NC(=O)[C@H](CC(=O)O)NC(=O)[C@H](CCSC)NC(=O)[C@H](CC(C)C)NC(=O)[C@H](CO)NC(=O)[C@H](CO)NC2=O)C(=O)N[C@@H](C(C)C)C(=O)N[C@@H](Cc2ccc(O)cc2)C(=O)N[C@@H](Cc2ccccc2)C(=O)N1)C(=O)N[C@H](C(=O)N[C@@H](Cc1c[nH]c2ccccc12)C(=O)O)[C@@H](C)CC [ENDOTHELIN] | 0.00094 µM

biological target: T1, Endothelin-1 receptor (Rattus norvegicus, UniProt P26684); assay: Binding affinity towards Endothelin A receptor in A10 rat thoracic aorta smooth muscle cells using [125I]ET1 as radioligand
T1 sequence (P26684 whole entry): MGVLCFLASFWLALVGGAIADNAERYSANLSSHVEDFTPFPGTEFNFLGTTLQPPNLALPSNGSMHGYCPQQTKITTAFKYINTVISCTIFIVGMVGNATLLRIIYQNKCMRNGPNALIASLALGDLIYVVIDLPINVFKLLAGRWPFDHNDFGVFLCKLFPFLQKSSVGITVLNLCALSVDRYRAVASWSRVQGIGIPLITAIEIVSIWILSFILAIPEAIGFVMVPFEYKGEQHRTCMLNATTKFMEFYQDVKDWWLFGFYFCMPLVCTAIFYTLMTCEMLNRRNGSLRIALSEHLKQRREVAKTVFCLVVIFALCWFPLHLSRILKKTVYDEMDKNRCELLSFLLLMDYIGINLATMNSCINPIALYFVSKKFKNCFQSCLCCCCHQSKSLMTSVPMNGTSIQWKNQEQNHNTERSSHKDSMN

Kd | Structure (SMILES)
0.00211 µM | CC[C@H](C)[C@H](NC(=O)[C@H](CC(=O)O)NC(=O)[C@H](CC(C)C)NC(=O)[C@H](Cc1cnc[nH]1)NC(=O)[C@@H]1CSSC[C@H](N)C(=O)N[C@@H](CO)C(=O)N[C@H]2CSSC[C@H](NC(=O)[C@H](CCC(=O)O)NC(=O)[C@H](CCCCN)NC(=O)[C@H](CC(=O)O)NC(=O)[C@H](CCSC)NC(=O)[C@H](CC(C)C)NC(=O)[C@H](CO)NC(=O)[C@H](CO)NC2=O)C(=O)N[C@@H](C(C)C)C(=O)N[C@@H](Cc2ccc(O)cc2)C(=O)N[C@@H](Cc2ccccc2)C(=O)N1)C(=O)N[C@@H](C)C(=O)N[C@@H](Cc1c[nH]c2ccccc12)C(=O)O (H-CSCSSLMDKECVYFCHLDIAW-OH; disulfide 1-15, 3-11)
0.13 µM | CC[C@H](C)[C@H](NC(=O)[C@H](CC(=O)O)NC(=O)[C@H](CC(C)C)NC(=O)[C@H](Cc1cnc[nH]1)NC(=O)[C@@H]1CSSC[C@H](N)C(=O)N[C@@H](CO)C(=O)N[C@H]2CSSC[C@H](NC(=O)[C@H](CCC(=O)O)NC(=O)[C@H](CCCCN)NC(=O)[C@H](CC(=O)O)NC(=O)[C@H](C)NC(=O)[C@H](C)NC(=O)[C@H](C)NC(=O)[C@H](C)NC2=O)C(=O)N[C@@H](C(C)C)C(=O)N[C@@H](Cc2ccc(O)cc2)C(=O)N[C@@H](Cc2ccccc2)C(=O)N1)C(=O)N[C@H](C(=O)N[C@@H](Cc1c[nH]c2ccccc12)C(=O)O)[C@@H](C)CC (H-CSCAAAADKECVYFCHLDIIW-OH; disulfide 1-15, 3-11)
0.188 µM | CC[C@H](C)[C@H](NC(=O)[C@H](CC(=O)O)NC(=O)[C@H](CC(C)C)NC(=O)[C@H](Cc1cnc[nH]1)NC(=O)[C@@H]1CSSC[C@H](N)C(=O)N[C@@H](CO)C(=O)N[C@H]2CSSC[C@H](NC(=O)[C@H](C)NC(=O)[C@H](CCCCN)NC(=O)[C@H](CC(=O)O)NC(=O)[C@H](CCSC)NC(=O)[C@H](CC(C)C)NC(=O)[C@H](CO)NC(=O)[C@H](CO)NC2=O)C(=O)N[C@@H](C(C)C)C(=O)N[C@@H](Cc2ccc(O)cc2)C(=O)N[C@@H](Cc2ccccc2)C(=O)N1)C(=O)N[C@H](C(=O)N[C@@H](Cc1c[nH]c2ccccc12)C(=O)O)[C@@H](C)CC (H-CSCSSLMDKACVYFCHLDIIW-OH; disulfide 1-15, 3-11)
0.929 µM | CSCC[C@@H]1NC(=O)[C@H](CC(C)C)NC(=O)[C@H](CO)NC(=O)[C@H](CO)NC(=O)[C@@H]2CSSC[C@H](NC(=O)[C@H](CCC(=O)O)NC(=O)[C@H](CCCCN)NC(=O)[C@H](CC(=O)O)NC1=O)C(=O)N[C@@H](C(C)C)C(=O)N[C@@H](Cc1ccc(O)cc1)C(=O)N[C@@H](Cc1ccccc1)C(=O)N[C@H](C(=O)N[C@@H](Cc1cnc[nH]1)C(=O)N[C@@H](CC(C)C)C(=O)N[C@@H](CC(=O)O)C(=O)N[C@@H](C)C(=O)N[C@@H](C)C(=O)N[C@@H](Cc1c[nH]c3ccccc13)C(=O)O)CSSC[C@H](N)C(=O)N[C@@H](CO)C(=O)N2 (H-CSCSSLMDKECVYFCHLDAAW-OH; disulfide 1-15, 3-11)
3.07 µM | CC[C@H](C)[C@H](NC(=O)[C@H](CC(=O)O)NC(=O)[C@H](CC(C)C)NC(=O)[C@H](Cc1c[nH]cn1)NC(=O)[C@@H]1CSSC[C@H](N)C(=O)N[C@@H](CO)C(=O)N[C@H]2CSSC[C@H](NC(=O)[C@H](CCC(=O)O)NC(=O)[C@H](CCCCN)NC(=O)[C@H](C)NC(=O)[C@H](CCSC)NC(=O)[C@H](CC(C)C)NC(=O)[C@H](CO)NC(=O)[C@H](CO)NC2=O)C(=O)N[C@@H](C(C)C)C(=O)N[C@@H](Cc2ccc(O)cc2)C(=O)N[C@@H](Cc2ccccc2)C(=O)N1)C(=O)N[C@H](C(=O)N[C@@H](Cc1c[nH]c2ccccc12)C(=O)O)[C@@H](C)CC (H-CSCSSLMAKECVYFCHLDIIW-OH; disulfide 1-15, 3-11)
> 20 µM | CC[C@H](C)[C@H](NC(=O)[C@H](CC(=O)O)NC(=O)[C@H](CC(C)C)NC(=O)[C@H](Cc1c[nH]cn1)NC(=O)[C@@H]1CSSC[C@H](N)C(=O)N[C@@H](CO)C(=O)N[C@H]2CSSC[C@H](NC(=O)[C@H](CCC(=O)O)NC(=O)[C@H](CCCCN)NC(=O)[C@H](CC(=O)O)NC(=O)[C@H](CCSC)NC(=O)[C@H](CC(C)C)NC(=O)[C@H](CO)NC(=O)[C@H](CO)NC2=O)C(=O)N[C@@H](C(C)C)C(=O)N[C@@H](Cc2ccc(O)cc2)C(=O)N[C@@H](Cc2ccccc2)C(=O)N1)C(=O)N[C@H](C(=O)N[C@@H](C)C(=O)O)[C@@H](C)CC (H-CSCSSLMDKECVYFCHLDIIA-OH; disulfide 1-15, 3-11) [listing 1 of 2 here]
0.646 µM | CC[C@H](C)[C@H](NC(=O)[C@H](CC(=O)O)NC(=O)[C@H](CC(C)C)NC(=O)[C@H](Cc1c[nH]cn1)NC(=O)[C@@H]1CSSC[C@H](N)C(=O)N[C@@H](CO)C(=O)N[C@H]2CSSC[C@H](NC(=O)[C@H](CCC(=O)O)NC(=O)[C@H](CCCCN)NC(=O)[C@H](CC(=O)O)NC(=O)[C@H](CCSC)NC(=O)[C@H](CC(C)C)NC(=O)[C@H](CO)NC(=O)[C@H](CO)NC2=O)C(=O)N[C@@H](C(C)C)C(=O)N[C@@H](Cc2ccc(O)cc2)C(=O)N[C@@H](C)C(=O)N1)C(=O)N[C@H](C(=O)N[C@@H](Cc1c[nH]c2ccccc12)C(=O)O)[C@@H](C)CC (H-CSCSSLMDKECVYACHLDIIW-OH; disulfide 1-15, 3-11)

species: Oryctolagus cuniculus; assay: Percent of endothelin-1 induced contraction of carotid arteries isolated from New Zealand white rabbits, tested at 1 uM concentration of compound; format: functional

Structure (SMILES) | Contraction
CC[C@H](C)[C@H](NC(=O)[C@H](CC(=O)O)NC(=O)[C@H](CC(C)C)NC(=O)[C@H](Cc1c[nH]cn1)NC(=O)[C@@H]1CSSC[C@H](N)C(=O)N[C@@H](CO)C(=O)N[C@H]2CSSC[C@H](NC(=O)[C@H](CCC(=O)O)NC(=O)[C@H](CCCCN)NC(=O)[C@H](CC(=O)O)NC(=O)[C@H](CCSC)NC(=O)[C@H](CC(C)C)NC(=O)[C@H](CO)NC(=O)[C@H](CO)NC2=O)C(=O)N[C@@H](C(C)C)C(=O)N[C@@H](Cc2ccc(O)cc2)C(=O)N[C@@H](Cc2ccccc2)C(=O)N1)C(=O)N[C@H](C(=O)N[C@@H](C)C(=O)O)[C@@H](C)CC (H-CSCSSLMDKECVYFCHLDIIA-OH; disulfide 1-15, 3-11) [listing 2 of 2 here] | 0%
CC[C@H](C)[C@H](NC(=O)[C@H](C)NC(=O)[C@H](CC(C)C)NC(=O)[C@H](Cc1c[nH]cn1)NC(=O)[C@@H]1CSSC[C@H](N)C(=O)N[C@@H](CO)C(=O)N[C@H]2CSSC[C@H](NC(=O)[C@H](CCC(=O)O)NC(=O)[C@H](CCCCN)NC(=O)[C@H](CC(=O)O)NC(=O)[C@H](CCSC)NC(=O)[C@H](CC(C)C)NC(=O)[C@H](CO)NC(=O)[C@H](CO)NC2=O)C(=O)N[C@@H](C(C)C)C(=O)N[C@@H](Cc2ccc(O)cc2)C(=O)N[C@@H](Cc2ccccc2)C(=O)N1)C(=O)N[C@H](C(=O)N[C@@H](Cc1c[nH]c2ccccc12)C(=O)O)[C@@H](C)CC (H-CSCSSLMDKECVYFCHLAIIW-OH; disulfide 1-15, 3-11) | 0%
CC[C@H](C)[C@H](NC(=O)[C@H](CC(=O)O)NC(=O)[C@H](CC(C)C)NC(=O)[C@H](Cc1c[nH]cn1)NC(=O)[C@@H]1CSSC[C@H](N)C(=O)N[C@@H](CO)C(=O)N[C@H]2CSSC[C@H](NC(=O)[C@H](CCC(=O)O)NC(=O)[C@H](CCCCN)NC(=O)[C@H](CC(=O)O)NC(=O)[C@H](CCSC)NC(=O)[C@H](CC(C)C)NC(=O)[C@H](CO)NC(=O)[C@H](CO)NC2=O)C(=O)N[C@@H](C(C)C)C(=O)N[C@@H](Cc2ccc(O)cc2)C(=O)N[C@@H](Cc2ccccc2)C(=O)N1)C(=O)N[C@@H](C)C(=O)N[C@@H](Cc1c[nH]c2ccccc12)C(=O)O (H-CSCSSLMDKECVYFCHLDIAW-OH; disulfide 1-15, 3-11) | 37%
CC[C@H](C)[C@H](NC(=O)[C@H](CC(=O)O)NC(=O)[C@H](C)NC(=O)[C@H](Cc1c[nH]cn1)NC(=O)[C@@H]1CSSC[C@H](N)C(=O)N[C@@H](CO)C(=O)N[C@H]2CSSC[C@H](NC(=O)[C@H](CCC(=O)O)NC(=O)[C@H](CCCCN)NC(=O)[C@H](CC(=O)O)NC(=O)[C@H](CCSC)NC(=O)[C@H](CC(C)C)NC(=O)[C@H](CO)NC(=O)[C@H](CO)NC2=O)C(=O)N[C@@H](C(C)C)C(=O)N[C@@H](Cc2ccc(O)cc2)C(=O)N[C@@H](Cc2ccccc2)C(=O)N1)C(=O)N[C@H](C(=O)N[C@@H](Cc1c[nH]c2ccccc12)C(=O)O)[C@@H](C)CC (H-CSCSSLMDKECVYFCHADIIW-OH; disulfide 1-15, 3-11) | 0%
